# From patent US20220193209A1, “COMPOSITIONS AND METHODS FOR REACTIVATING LATENT IMMUNODEFICIENCY VIRUS AND/OR TREATING IMMUNODEFICIENCY VIRUS INFECTION” (The J. David Gladstone institutes, a testamentary trust …, priority 2019, published 2022)
# Tests used:
# [1] = system: latent HIV-1 provirus in J-Lat cells; assay: HIV-GFP reactivation in J-Lat cell lines (RT-qPCR, FACS); type: cell-based
# Description: Total RNA from samples was extracted using the Direct-zol RNA kit (R2060; Zymogen). cDNA was generated using 500 ng for CD4^+ T cells or 1000 ng of total RNA for J-Lats with Superscript III Reverse transcription (18080-044; ThermoFisher) and oligo(dT) (18418-012; ThermoFisher). Quantitative RT-PCR was carried out using Maxima SYBR Green qPCR Master Mix (Thermo Scientific) on SDS 2.4 software (Applied Biosystems) in a total volume of 12 μL. The SYBR green qPCR reactions contained 5 μl of 2× Maxima SYBR green/Rox qPCR Master Mix (K0221; ThermoFisher), 5 μl of diluted cDNA, and 1 nmol of both forward and reverse primers. The reactions were run using the following conditions: 50° C. for 2 min and 95° C. for 10 min, followed by 40 cycles of 95° C. for 5 s and 62° C. for 30 s. See Table 1 below for a qRT-PCR primer list. […] Dissociation curve analysis was performed after the end of the PCR to confirm the presence of a single and specific product. All qPCRs were independently repeated at least three times, averaged and compared using standard deviation (±SD).
# The J-Lat clonal cell lines are Jurkat cells that contain a stably integrated, latent HIV-1 (HXB) Δenv provirus with a GFP reporter gene in place of the nef gene (Jordan, A. et al. EMBO J. 22, 1868-1877 (2003)). In this system, reactivation from established latency can be monitored through GFP expression.
# HIV-GFP mRNA reactivation was assessed by RT-qPCR and normalized to RPL13A mRNA. Data represent average SD of three independent experiments. p-value relative to the control at each time point. FIG. 3, Panel B, depicts cell viability assessed by flow cytometry at 72 h of the same experiment as in A. Cell viability was measured by gating on both the live population at the forward scatter (FSC) and side scatter (SSC) plot and then the viable cells after staining with the viability dye. […] HIV-GFP reactivation (bars) and cell viability (dots) were analyzed by FACS. HIV-GFP reactivation is reported as a percentage of GFP-expressing cells (% GFP+ cells). Data represent average f SD of at least three independent experiments. FIG. 3, Panel D, depicts the same experiments as in FIG. 3, Panel C, but performed in different J-Lat cell lines 5A8, 6.3, 11.1 and 15.4. Data represent average f SD of at least three independent experiments. 10 ng/mL TNFα was used as control. […] Calculation of synergy for drug combinations using the Bliss independence model applied to the HIV-GFP reactivation measured as a percentage of GFP-expressing cells (% GFP+ cells).
# Chromatin was prepared from J-Lat A2 and 5A8 cells, in which the LTR was stimulated by 1000 nM AS1842856 treatment, TNFα or which were left untreated/DMSO. […] HIV-GFP reactivation was analyzed by FACS and relativized to the control condition. […] Data represent average SD of 3-6 independent experiments. […] HIV-GFP reactivation was analyzed by FACS. […] HIV-GFP reactivation and cell viability were analyzed by FACS. Data were mean±SD of three independent experiments.
# [2] = system: ATF4; assay: Western blot of ATF4 protein in CD4+ T cells; type: cell-based, human; conditions: multiple donors
# Description: Cells were lysed in radioimmunoprecipitation assay buffer (50 mM Tris-HCl, pH 8, 150 mM NaCl, 1% NP-40, 0.5% sodium deoxycholate, and 0.1% SDS, supplemented with protease inhibitor cocktail; Sigma-Aldrich) for 30 min at 4° C. Samples were resuspended in Laemmli buffer for SDS-PAGE. For chemiluminescent detection, enhanced luminol-based chemiluminescent substrate (ECL) and ECL Hyperfilm (Amersham) were used.
# The RNA-Seq results were validated by measuring read counts of the selected genes representative of different pathways (FIG. 8, Panel D) as well as by Real-Time Quantitative PCR (RT-qPCR) (FIG. 7, Panel C). […] Upstream regulator analysis identified TRIB3 and ATF4 as the top regulators of AS1842856-induced gene changes (FIG. 7, Panel D).
# FIG. 7, Panels A-E, depict marked upregulation of the regulator ATF4 in response to FOXO1 inhibition in primary CD4^+ T cells. FIG. 7, Panel A depicts a volcano plot from the RNA-Seq data comparing CD4^+ T cells treated with 1000 nM AS1842856 versus DMSO control for 48 h. […] FIG. 7, Panel D, depicts analysis of the five top upstream regulators and table with their activation z-scores according to the RNA-Seq data. FIG. 7, Panel E depicts a representative blot of protein expression of dysregulated genes of interest (left) and densitometry analysis (right) was performed from three individual donors.
compound,measurement,setting,value
"CCn1cc(C(=O)O)c(=O)c2c(N)c(F)c(NC3CCCCC3)cc21 [AS1842856, 5-amino-7-(cyclohexylamino)-1-ethyl-6-fluoro-4-oxo-1,4-dihydro-quinoline-3-carboxylic acid]",HIV-driven GFP expression (flow cytometry),[1]; J-Lat A2 cells (contain Tat),increased GFP expression
same,HIV-driven GFP expression (flow cytometry),[1]; J-Lat A72 cells (no Tat),increased GFP expression
same,"HIV reactivation (percentage of GFP+ cells, median fluorescence intensity)","[1]; four J-Lat clonal cell lines, 72 hours",reactivated HIV in each cell line
same,ATF4 protein levels,[2],increased expression
